Assay results reported in patent US4619916A, “Tripeptide compounds containing pyroglutamic acid and tryptophan, process for their production and therapeutic applications” (Polifarma S.p.A., priority 1984, dated 1986).
Where a SMILES comes first, the peptide text is derived from it. [ ]: non-standard residue; d: D form. pGlu = O=C1CC[C@@H](C(=O)O)N1

Legend:
[1] = tested on: Male CD Charles River rats; assay: Potentiation of the hypotensive effect of adenosine; format: in vivo, rat; conditions: for Effect on the hypotensive effect of adenosine: tripeptide 0.1 mg/kg in the vein, 15 minutes before adenosine (0.15 mg/kg in the vein)
Description: Male CD Charles River rats weighing 220-250 g were used, anesthetized with ethyl urethane (1.75 g/kg intraperitoneally). After incannulation of the trachea, the right carotid was isolated and connected by a cannula to a pressure measurement device. The isolated left carotid was used to record the flow by means of an electromagnetic flussimeter. Other parameters recorded were: dp/dt, ECG (electrocardiogram), BPM (beats per minute). All values were recorded on an 8 channel Hewlett Packard polygraph.
(§1) The tripeptides were dissolved in 0.9% NaCl and injected in the right femoral vein.
Any interference of synthesized peptides with the hemodynamic effects of adenosine would be shown using the method described. […] In this case the compound according to the invention was pGLU-GLU-TRP.

female Swiss albino mice = assay: Analgesic activity, writhing test with 3% aqueous acetic acid; format: in vivo, mouse; conditions: for Analgesic activity (mean reduction of number of contorsions vs controls): 20 minute observation
Description: This activity was evaluated with the writhing test, using a 3% aqueous acetic acid solution as pain-causing agent, injected intraperitoneally (0.1 ml/10 g). The experiment was performed with 80 female Swiss albino mice weighing 18-24 g, fasting for three hours and divided into groups of 20 animals each: (1) controls, treated with 0.9% NaCl; (2) those treated with the test tripeptide (10 mg/kg intraperitoneally); (3) those treated with adenosine (2 mg/kg intraperitoneally); (4) those treated with the tripeptide (10 mg/kg intraperitoneally) and adenosine (2 mg/kg intraperitoneally). In groups 1 and 2 the substances were administered 40 minutes before the acetic acid; in group 3 the adenosine was administered 10 minutes before the acetic acid; in group 4 the adenosine was administered 30 minutes after the tripeptide and 10 minutes before the acetic acid. After the acetic acid innoculation, the animals were placed in groups of 5 in plastic cages, and observed for a 20 minute period. The number of contorsions the animals made during that period was recorded. Based on the mean reduction of the number of contorsions of the treated animals with respect to the controls, the analgesic action of the test substance was calculated.

[2] = tested on: Male CD Charles River rats; assay: Hypotensive effect in anesthetized rats (carotid pressure after intravenous injection); format: in vivo, rat; conditions: dose of 2 mg/kg, injected in the right femoral vein, in 0.9% NaCl, urethane-anesthetized rats
Description: After incannulation of the trachea, the right carotid was isolated and connected by a cannula to a pressure measurement device. The isolated left carotid was used to record the flow by means of an electromagnetic flussimeter. Other parameters recorded were: dp/dt, ECG (electrocardiogram), BPM (beats per minute). All values were recorded on an 8 channel Hewlett Packard polygraph.
as §1

## Nc1ncnc2c1ncn2[C@@H]1O[C@H](CO)[C@@H](O)[C@H]1O [adenosine, reference compound]
[1]; 0.15 mg/kg in the vein
  Hemodynamic effect of adenosine alone: transient hypotensive effect
Female Swiss albino mice; adenosine 2 mg/kg intraperitoneally, 10 minutes before acetic acid
  Analgesic activity (mean reduction of number of contorsions vs controls): 20%

## C[C@H](NC(=O)[C@@H]1CCC(=O)N1)C(=O)N[C@@H](Cc1c[nH]c2ccccc12)C(=O)O [pGLU--ALA--TRP, pGLU-ALA-TRP] ([pGlu]-Ala-Trp-OH)
[2]
  Δ on maximum (lowering of the maximum pressure): 10 mm Hg
  Δ on minimum (lowering of the minimum pressure): 20 mm Hg

## N=C(N)NCCC[C@H](NC(=O)[C@@H]1CCC(=O)N1)C(=O)N[C@@H](Cc1c[nH]c2ccccc12)C(=O)O [pGLU--ARG--TRP, pGLU-ARG-TRP] ([pGlu]-Arg-Trp-OH)
[2]
  Δ on maximum (lowering of the maximum pressure): 25 mm Hg
  Δ on minimum (lowering of the minimum pressure): 15 mm Hg

## NC(=O)C[C@H](NC(=O)[C@@H]1CCC(=O)N1)C(=O)N[C@@H](Cc1c[nH]c2ccccc12)C(=O)O [pGLU--ASN--TRP, pGLU-ASN-TRP] ([pGlu]-Asn-Trp-OH)
[2]
  Δ on maximum (lowering of the maximum pressure): 35 mm Hg
  Δ on minimum (lowering of the minimum pressure): 20 mm Hg
[1]
  Effect on the hypotensive effect of adenosine: potentiates and prolongs the hypotensive effect
Female Swiss albino mice; tripeptide 10 mg/kg i.p. plus adenosine 2 mg/kg i.p. given 30 minutes after the tripeptide and 10 minutes before acetic acid
  Analgesic activity of tripeptide together with adenosine: additive effect
Female Swiss albino mice; tripeptide 10 mg/kg intraperitoneally, 40 minutes before acetic acid
  Analgesic activity (mean reduction of number of contorsions vs controls): 25%

## O=C(O)C[C@H](NC(=O)[C@@H]1CCC(=O)N1)C(=O)N[C@@H](Cc1c[nH]c2ccccc12)C(=O)O [pGLU--ASP--TRP, pGLU-ASP-TRP] ([pGlu]-Asp-Trp-OH)
[2]
  Δ on maximum (lowering of the maximum pressure): 10 mm Hg
  Δ on minimum (lowering of the minimum pressure): 10 mm Hg

## NC(=O)CC[C@H](NC(=O)[C@@H]1CCC(=O)N1)C(=O)N[C@@H](Cc1c[nH]c2ccccc12)C(=O)O [pGLU--GLN--TRP, pGLU-GLN-TRP] ([pGlu]-Gln-Trp-OH)
[2]
  Δ on maximum (lowering of the maximum pressure): 20 mm Hg
  Δ on minimum (lowering of the minimum pressure): 10 mm Hg

## O=C(O)CC[C@H](NC(=O)[C@@H]1CCC(=O)N1)C(=O)N[C@@H](Cc1c[nH]c2ccccc12)C(=O)O [pGLU--GLU--TRP, pGLU-GLU-TRP] ([pGlu]-Glu-Trp-OH)
[2]
  Δ on maximum (lowering of the maximum pressure): 20 mm Hg
  Δ on minimum (lowering of the minimum pressure): 10 mm Hg
[1]
  Effect on the hypotensive effect of adenosine: potentiates and prolongs the hypotensive effect

## O=C(CNC(=O)[C@@H]1CCC(=O)N1)N[C@@H](Cc1c[nH]c2ccccc12)C(=O)O [pGLU--GLY--TRP, p-GLU-GLY-TRP] ([pGlu]-Gly-Trp-OH)
[2]
  Δ on maximum (lowering of the maximum pressure): 25 mm Hg
  Δ on minimum (lowering of the minimum pressure): 35 mm Hg

## CCOC(=O)[C@H](Cc1c[nH]c2ccccc12)NC(=O)[C@@H](NC(=O)[C@@H]1CCC(=O)N1)[C@@H](C)CC [pGLU--ILE--TRP--OEt] ([pGlu]-Ile-Trp-OEt)
[2]
  Δ on maximum (lowering of the maximum pressure): 30 mm Hg
  Δ on minimum (lowering of the minimum pressure): 25 mm Hg

## CC(C)C[C@H](NC(=O)[C@@H]1CCC(=O)N1)C(=O)N[C@@H](Cc1c[nH]c2ccccc12)C(=O)O [pGLU--LEU--TRP, pGLU-LEU-TRP] ([pGlu]-Leu-Trp-OH)
[2]
  Δ on maximum (lowering of the maximum pressure): 30 mm Hg
  Δ on minimum (lowering of the minimum pressure): 30 mm Hg

## CCOC(=O)[C@H](Cc1c[nH]c2ccccc12)NC(=O)[C@H](CC(C)C)NC(=O)[C@@H]1CCC(=O)N1 [pGLU--LEU--TRP--OEt, pGLU-LEU-TRP-OEt] ([pGlu]-Leu-Trp-OEt)
[2]
  Δ on maximum (lowering of the maximum pressure): 30 mm Hg
  Δ on minimum (lowering of the minimum pressure): 20 mm Hg

## NCCCC[C@H](NC(=O)[C@@H]1CCC(=O)N1)C(=O)N[C@@H](Cc1c[nH]c2ccccc12)C(=O)O [pGLU--LYS--TRP, pGLU-LYS-TRP] ([pGlu]-Lys-Trp-OH)
[2]
  Δ on maximum (lowering of the maximum pressure): 35 mm Hg
  Δ on minimum (lowering of the minimum pressure): 25 mm Hg

## O=C1CC[C@@H](C(=O)N[C@@H](CO)C(=O)N[C@@H](Cc2c[nH]c3ccccc23)C(=O)O)N1 [pGLU--SER--TRP, pGLU-SER-TRP] ([pGlu]-Ser-Trp-OH)
[2]
  Δ on maximum (lowering of the maximum pressure): 45 mm Hg
  Δ on minimum (lowering of the minimum pressure): 35 mm Hg
